Experimental data published in patent publication US20160008298A1, “XANTHOHUMOL-BASED COMPOUNDS AND COMPOSITIONS THEREOF, AND METHODS OF MAKING AND USING THE SAME” (Oregon State University, priority 2014, published 2016).

Legend:
[1] = system: mitochondrial transmembrane potential in C2C12 cells; experiment: JC-1 assay of mitochondrial transmembrane potential; assay type: cell-based, mouse; conditions: 2.5 μM
Protocol: Cells were plated at a density of 80,000 cells per well in black 96-well plates and incubated for 24 hours at 37° C. (5% CO2). They were then treated with fresh solutions of various concentrations of XN, DXN or TXN in growth medium. The final concentrations of XN, DXN, TXN were 1, 2, 5, 8, 25, 50 μM, all in quadruplicate wells, in the 96-well plates. After one hour of exposure to the compounds at 37° C. (5% CO2), the cells were treated with 10 μL of a JC-1 staining solution (freshly prepared by diluting 11 fold 100 μL of the JC-1 agent furnished from the assay kit). After 15 to 30 minutes of incubation (37° C., 5% CO2), the cells were washed three times with the Cell-Based Assay Buffer (prepared by dissolving three buffer tablets of the kit in 300 mL of MilliQ water). The plates were then analyzed by a fluorescent plate reader (SpectraMax Gemini XS) at 560-595 nm and 485-535 nm.
JC-1 can selectively enter into mitochondria and reversibly change color from green to red as the membrane potential increases. In healthy cells with high mitochondrial transmembrane potential, JC-1 spontaneously forms complexes known as J-aggregates with intense red fluorescence with excitation and emission at 560 nm and 595 nm, respectively. […] The ratio of fluorescence intensity of J-aggregates to fluorescence intensity of J-monomers can be used as an indicator of cell heath or mitochondrial state. […] A decrease in the values of the ratios compared to the control is indicative of an alteration in the potential across the mitochondrial membrane.

plasma membrane = conditions: cited from earlier work
mice = conditions: mouse; cited from earlier work
[2] = system: C2C12 skeletal muscle cells; experiment: Seahorse OCR and ECAR measurements after oligomycin; assay type: cell-based, mouse; conditions: oligomycin 1 μM; for ECAR plateau after injection of oligomycin: % pre oligomycin values
Protocol: OCR and ECAR measurements were performed with a Seahorse XF 24 Analyzer (Seahorse Bioscience). Cells were plated 24 hours prior to measurements at a density of 40,000 cells per well within growth medium in a 24-well plate. The cells were then allowed to adhere for 24 hours (37° C., 5% CO2). Prior to the assay, the cells were washed with freshly prepared running media consisting of Seahorse XF Assay medium (Seahorse Bioscience, North America, USA), 10 mM glucose and 1 mM sodium pyruvate. The pH of the medium was adjusted to 7.4 with 1 M NaOH. The cells were then equilibrated for one hour at 37° C. without CO2. The compounds were injected during the assay; OCR and ECAR were measured at 9 minutes measurement intervals. The solutions of oligomycin, FCCP, XN, DXN and TXN were freshly prepared in running medium. The final concentrations in the wells were: 1 μM for oligomycin, 5 μM for XN, DXN and TXN and 2, 5, 8, 25 μM for the dose response experiments with DXN. Ethanol was added to the control wells not to exceed a final concentration of 0.1%. All the compounds were tested in quadruplicate on the 24-well plate. XN is highly non-polar and FBS can be used to dissolve XN. Thus, XN, DXN and TXN were first dissolved in ethanol and the resulting solutions were diluted 100-fold in running medium containing 1% of FBS. After a further 10-fold dilution into the media in wells, only 0.1% of FBS was present during OCR measurements. […] The concentration of oligomycin and the cell density used were selected based on preliminary experiments.
Seahorse data were analyzed in SAS 9.2 (SAS Institute Inc., Cary, N.C.). To show a consistent baseline, OCR values (in pmol/min/mg protein) and ECAR values (in mpH/min/mg protein) for each value were divided prior to statistical analysis by the average of the four pre oligomycin treatment values (0, 8, 17, and 25 minutes) for the corresponding well and are shown as % pre oligomycin values. The original scale for OCR and for ECAR values was utilized for the OCR/ECAR ratio (in pMol/mpH). To account for repeated measures within wells over time, a repeated-measures-in-time design using ANOVA procedures in PROC MIXED was used. Fixed effects in the model were treatment (control, 2 μM DXN, 5 μM XN, 5 μM DXN, and 5 μM TXN for the compound study and control, 2, 5, 8, and 25 μM DXN for the DXN dosage study), time (0, 8, 17, 25, 34, 43, 52, 60, 69, 78, 86, and 95 minutes), and their interaction. The random effect was the experiment (5 experiments for the compound study and 3 experiments for the DXN dosage study). To account for repeated measures within wells over time, a first order homogeneous variance-covariance matrix [AR(1)] was fitted for each well. Using the ESTIMATE statement, a priori contrasts were constructed by comparing the changes in compound treated cells from the last two time points prior to compound treatment (average 52 and 60 minutes) to the changes in control cells during the same time period. This was done for each compound and dosage for 69, 78, 86, and 95 minutes separately and for all four time points combined. […] A P-value of 0.05 was considered statistically significant and is shown as star in the graphs (FIG. 5).

For `N#CC(C#N)=NNc1ccc(OC(F)(F)F)cc1` [FCCP, carbonyl cyanide-4-(trifluoromethoxy)phenylhydrazone, reference compound], the “ratio value of aggregates to monomers (JC-1, percent of control)” value [1] is given as 33.0±5.6% and the “concentration from which the plasma membrane is depolarized” value (plasma membrane) is given as “above 2.5 μM”.

In the case of `O=[N+]([O-])c1ccc(O)c([N+](=O)[O-])c1` [dinitrophenol, reference compound], the LD50 (mice) is given as 45 mg/kg.

With `CC[C@H]1/C=C/C=C/C[C@@H](C)[C@H](O)[C@@](C)(O)C(=O)[C@@H](C)[C@H](O)[C@@H](C)C(=O)[C@@H](C)[C@H](O)[C@@H](C)/C=C/C(=O)O[C@@H]2[C@H](C)[C@H](CC1)O[C@]1(CC[C@H](C)[C@H](C[C@@H](C)O)O1)[C@H]2C` [oligomycin, reference compound] the “residual OCR after oligomycin” value ([2]; DXN dosage experiment) was 51.4±6.3%, the “ECAR plateau after injection of oligomycin” value ([2]; DXN dosage study) was 151.1±3.4% and the “ECAR plateau after injection of oligomycin” value ([2]; compound study) was 160.1±5.1%.
